# Source: PubChem BioAssay AID2060503 (Molecular Pharmacology Branch, DTP, NCI, 2025)
# Values joined by “and” are separate entries in the source; they are usually repeats but may differ in a detail not shown here. Equal entries are not always repeated.
# Tested on: 817829-284-R-J1-PDC complex spheroids, viability
# Assay: Anticancer human tumor 817829-284-R-J1-PDC patient-derived colon adenocarcinoma cell line growth inhibition [GQUAD]
# Details: for viability, T/C: stronger effect = lower value
# How it was run: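 Viability of tumor cells grown as complex spheroids with endothelial and stromal cells, exposed to drug combinations. Top concentration at or near clinical Cmax (else 10 microM), diluted in half-log increments.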
# [1] = curve of first compound, second compound 0.0316 µM
# [2] = curve of first compound, second compound 0.1 µM
# [3] = curve of first compound, second compound 0.316 µM
# [4] = curve of first compound, second compound 1 µM
# [5] = curve of first compound, second compound 3.16 µM
# [6] = curve of first compound, second compound 10 µM
# [7] = second compound 0.0316 µM, first compound 0.0316 µM
# [8] = second compound 0.0316 µM, first compound 0.1 µM
# [9] = second compound 0.0316 µM, first compound 0.316 µM
# [10] = second compound 0.0316 µM, first compound 1 µM
# [11] = second compound 0.0316 µM, first compound 3.16 µM
# [12] = second compound 0.0316 µM, first compound 10 µM
# [13] = second compound 0.1 µM, first compound 0.0316 µM
# [14] = second compound 0.1 µM, first compound 0.1 µM
# [15] = second compound 0.1 µM, first compound 0.316 µM
# [16] = second compound 0.1 µM, first compound 1 µM
# [17] = second compound 0.1 µM, first compound 3.16 µM
# [18] = second compound 0.1 µM, first compound 10 µM
# [19] = second compound 0.316 µM, first compound 0.0316 µM
# [20] = second compound 0.316 µM, first compound 0.1 µM
# [21] = second compound 0.316 µM, first compound 0.316 µM
# [22] = second compound 0.316 µM, first compound 1 µM
# [23] = second compound 0.316 µM, first compound 3.16 µM
# [24] = second compound 0.316 µM, first compound 10 µM
# [25] = second compound 1 µM, first compound 0.0316 µM
# [26] = second compound 1 µM, first compound 0.1 µM
# [27] = second compound 1 µM, first compound 0.316 µM
# [28] = second compound 1 µM, first compound 1 µM
# [29] = second compound 1 µM, first compound 3.16 µM
# [30] = second compound 1 µM, first compound 10 µM
# [31] = second compound 3.16 µM, first compound 0.0316 µM
# [32] = second compound 3.16 µM, first compound 0.1 µM
# [33] = second compound 3.16 µM, first compound 0.316 µM
# [34] = second compound 3.16 µM, first compound 1 µM
# [35] = second compound 3.16 µM, first compound 3.16 µM
# [36] = second compound 3.16 µM, first compound 10 µM
# [37] = second compound 10 µM, first compound 0.0316 µM
# [38] = second compound 10 µM, first compound 0.1 µM
# [39] = second compound 10 µM, first compound 0.316 µM
# [40] = second compound 10 µM, first compound 1 µM
# [41] = second compound 10 µM, first compound 3.16 µM
# [42] = second compound 10 µM, first compound 10 µM
# 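Further: spheroids exposed to agents for 7 days before readout.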
# 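Wherever viability, T/C is given: percent viability relative to DMSO vehicle control taken as 100%.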
structure (smiles),measurement,setting,value
COc1ccc([C@@H](O)c2cc(-c3ncnc4cc(N5CCOCC5)ccc34)c(F)cc2Cl)nn1 + Cc1cnc(CNC(=O)c2c(=O)c3ccc(N4CCCN(C)CC4)nc3n3c2sc2ccccc23)cn1,IC50,[1],239 nM
same,IC50,[2],< 31.6 nM
same,IC50,[3],< 31.6 nM
same,IC50,[4],< 31.6 nM
same,IC50,[5],< 31.6 nM
same,IC50,[6],< 31.6 nM
same,"viability, T/C",[7],81.7%
same,"viability, T/C",[8],75.5%
same,"viability, T/C",[9],41%
same,"viability, T/C",[10],31.2%
same,"viability, T/C",[11],27.9%
same,"viability, T/C",[12],20.9%
same,"viability, T/C",[13],42%
same,"viability, T/C",[14],37.5%
same,"viability, T/C",[15],31.9%
same,"viability, T/C",[16],24.2%
same,"viability, T/C",[17],24.2%
same,"viability, T/C",[18],19.3%
same,"viability, T/C",[19],27.7%
same,"viability, T/C",[20],29.7%
same,"viability, T/C",[21],24%
same,"viability, T/C",[22],22%
same,"viability, T/C",[23],22.8%
same,"viability, T/C",[24],18%
same,"viability, T/C",[25],25.1%
same,"viability, T/C",[26],25.6%
same,"viability, T/C",[27],25.1%
same,"viability, T/C",[28],17.7%
same,"viability, T/C",[29],18.2%
same,"viability, T/C",[30],12.7%
same,"viability, T/C",[31],21.2%
same,"viability, T/C",[32],22.7%
same,"viability, T/C",[33],21.6%
same,"viability, T/C",[34],17%
same,"viability, T/C",[35],15%
same,"viability, T/C",[36],8.95%
same,"viability, T/C",[37],0.12%
same,"viability, T/C",[38],0.16%
same,"viability, T/C",[39],0.18%
same,"viability, T/C",[40],0.23%
same,"viability, T/C",[41],0.2%
same,"viability, T/C",[42],0.19%
CC[C@@]1(O)C(=O)OCc2c1cc1n(c2=O)Cc2cc3c(CN(C)C)c(O)ccc3nc2-1,"viability, T/C",compound 0.000999 µM,107% and 116% and 105%
same,"viability, T/C",compound 0.00316 µM,94.3% (2×) and 87.9%
same,"viability, T/C",compound 0.00999 µM,107% (2×) and 109%
same,"viability, T/C",compound 0.0316 µM,53.6% and 60.3% and 47.5%
same,"viability, T/C",compound 0.0999 µM,33.9% and 45.5% and 27.7%
same,"viability, T/C",compound 0.316 µM,26.1% and 37.7% and 29.7%
same,IC50,curve of compound,37.6 nM and 59.5 nM and 30.1 nM
Cc1cnc(CNC(=O)c2c(=O)c3ccc(N4CCCN(C)CC4)nc3n3c2sc2ccccc23)cn1,"viability, T/C",compound 0.0316 µM,90.4% [middle of 12 runs]
same,"viability, T/C",compound 0.1 µM,39.5% [middle of 12 runs]
same,"viability, T/C",compound 0.316 µM,29.2% [middle of 12 runs]
same,"viability, T/C",compound 1 µM,23.6% [middle of 12 runs]
same,"viability, T/C",compound 3.16 µM,15.9% [middle of 12 runs]
same,"viability, T/C",compound 10 µM,0.15% [middle of 8 runs]
same,IC50,"compound alone, run of 02/20/2024",85.8 nM [middle of 11 runs]
C#Cc1c(F)ccc2cc(O)cc(-c3ncc4c(N5CC6CCC(C5)N6)nc(OCC56CCCN5CC(F)C6)nc4c3F)c12 (stereo not drawn) + Cc1cnc(CNC(=O)c2c(=O)c3ccc(N4CCCN(C)CC4)nc3n3c2sc2ccccc23)cn1,IC50,[1],> 10000 nM
same,IC50,[2],< 31.6 nM
same,IC50,[3],< 31.6 nM
same,IC50,[4],< 31.6 nM
same,IC50,[5],< 31.6 nM
same,IC50,[6],< 31.6 nM
same,"viability, T/C",[7],82.9%
same,"viability, T/C",[8],72.5%
same,"viability, T/C",[9],84.7%
same,"viability, T/C",[10],61%
same,"viability, T/C",[11],91.2%
same,"viability, T/C",[12],89.8%
same,"viability, T/C",[13],30.7%
same,"viability, T/C",[14],35.5%
same,"viability, T/C",[15],32.8%
same,"viability, T/C",[16],36.2%
same,"viability, T/C",[17],33.9%
same,"viability, T/C",[18],35.9%
same,"viability, T/C",[19],22.9%
same,"viability, T/C",[20],28.6%
same,"viability, T/C",[21],24.8%
same,"viability, T/C",[22],24.1%
same,"viability, T/C",[23],29.4%
same,"viability, T/C",[24],27%
same,"viability, T/C",[25],17.9%
same,"viability, T/C",[26],23.4%
same,"viability, T/C",[27],20.6%
same,"viability, T/C",[28],21.8%
same,"viability, T/C",[29],23%
same,"viability, T/C",[30],19.8%
same,"viability, T/C",[31],17%
same,"viability, T/C",[32],20.1%
same,"viability, T/C",[33],18.8%
same,"viability, T/C",[34],17.3%
same,"viability, T/C",[35],22.7%
same,"viability, T/C",[36],20.5%
same,"viability, T/C",[37],0.13%
same,"viability, T/C",[38],0.18%
same,"viability, T/C",[39],0.19%
same,"viability, T/C",[40],0.15%
same,"viability, T/C",[41],0.18%
same,"viability, T/C",[42],0.16%
